Several values for one entry are separate records, joined by “and”; a condition that tells them apart may be missing. Equal values may be shown once.
Test system: 996289-038-R-J1-PDC spheroid viability
Assay: Anticancer human tumor 996289-038-R-J1-PDC patient-derived colon adenocarcinoma cell line growth inhibition [PI3K]
Conditions: spheroids with HUVEC and MSC; for viability, T/C: stronger effect = lower value
Procedure, shortened: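 Spheroid viability read-out. Co-cultures contained the tumor line plus HUVEC and human MSCs. Each agent was paired with a PI3K inhibitor (inavolisib, alpelisib, duvelisib, copanlisib) across half-log dilutions starting at clinical Cmax, or at 10 microM when Cmax was unknown.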

[1] = curve of first compound, second compound 0.00316 µM
[2] = curve of first compound, second compound 0.01 µM
[3] = curve of first compound, second compound 0.0316 µM
[4] = curve of first compound, second compound 0.1 µM
[5] = curve of first compound, second compound 0.316 µM
[6] = curve of first compound, second compound 1 µM
[7] = second compound 0.00316 µM, first compound 0.0316 µM
[8] = second compound 0.00316 µM, first compound 0.1 µM
[9] = second compound 0.00316 µM, first compound 0.316 µM
[10] = second compound 0.00316 µM, first compound 1 µM
[11] = second compound 0.00316 µM, first compound 3.16 µM
[12] = second compound 0.00316 µM, first compound 10 µM
[13] = second compound 0.01 µM, first compound 0.0316 µM
[14] = second compound 0.01 µM, first compound 0.1 µM
[15] = second compound 0.01 µM, first compound 0.316 µM
[16] = second compound 0.01 µM, first compound 1 µM
[17] = second compound 0.01 µM, first compound 3.16 µM
[18] = second compound 0.01 µM, first compound 10 µM
[19] = second compound 0.0316 µM, first compound 0.0316 µM
[20] = second compound 0.0316 µM, first compound 0.1 µM
[21] = second compound 0.0316 µM, first compound 0.316 µM
[22] = second compound 0.0316 µM, first compound 1 µM
[23] = second compound 0.0316 µM, first compound 3.16 µM
[24] = second compound 0.0316 µM, first compound 10 µM
[25] = second compound 0.1 µM, first compound 0.0316 µM
[26] = second compound 0.1 µM, first compound 0.1 µM
[27] = second compound 0.1 µM, first compound 0.316 µM
[28] = second compound 0.1 µM, first compound 1 µM
[29] = second compound 0.1 µM, first compound 3.16 µM
[30] = second compound 0.1 µM, first compound 10 µM
[31] = second compound 0.316 µM, first compound 0.0316 µM
[32] = second compound 0.316 µM, first compound 0.1 µM
[33] = second compound 0.316 µM, first compound 0.316 µM
[34] = second compound 0.316 µM, first compound 1 µM
[35] = second compound 0.316 µM, first compound 3.16 µM
[36] = second compound 0.316 µM, first compound 10 µM
[37] = second compound 1 µM, first compound 0.0316 µM
[38] = second compound 1 µM, first compound 0.1 µM
[39] = second compound 1 µM, first compound 0.316 µM
[40] = second compound 1 µM, first compound 1 µM
[41] = second compound 1 µM, first compound 3.16 µM
[42] = second compound 1 µM, first compound 10 µM
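Note: spheroids exposed to compounds for seven days before viability read.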
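Throughout, for viability, T/C: luminescence used as a proxy for viable cell amount; percent viability relative to DMSO vehicle control as 100%.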

C#Cc1c(F)ccc2cc(O)cc(-c3ncc4c(N5CC6CCC(C5)N6)nc(OCC56CCCN5CC(F)C6)nc4c3F)c12 (stereo unspecified) + CC(Nc1ccc2c(c1)OCCn1cc(N3C(=O)OCC3C(F)F)nc1-2)C(N)=O
IC50 [1]: 1450 nM
IC50 [2]: 859 nM
IC50 [3]: 641 nM
IC50 [4]: 347 nM
IC50 [5]: 169 nM
IC50 [6]: 77.2 nM
viability, T/C [7]: 86%
viability, T/C [8]: 81.2%
viability, T/C [9]: 67.4%
viability, T/C [10]: 52%
viability, T/C [11]: 45%
viability, T/C [12]: 34.9%
viability, T/C [13]: 89%
viability, T/C [14]: 80.6%
viability, T/C [15]: 57.7%
viability, T/C [16]: 52.6%
viability, T/C [17]: 39.8%
viability, T/C [18]: 41.1%
viability, T/C [19]: 87.5%
viability, T/C [20]: 83.2%
viability, T/C [21]: 59.6%
viability, T/C [22]: 42.5%
viability, T/C [23]: 44.2%
viability, T/C [24]: 30%
viability, T/C [25]: 75%
viability, T/C [26]: 69.6%
viability, T/C [27]: 50.2%
viability, T/C [28]: 35.9%
viability, T/C [29]: 32%
viability, T/C [30]: 26.1%
viability, T/C [31]: 72.2%
viability, T/C [32]: 57.1%
viability, T/C [33]: 40.8%
viability, T/C [34]: 33.7%
viability, T/C [35]: 29.6%
viability, T/C [36]: 21.6%
viability, T/C [37]: 56.8%
viability, T/C [38]: 48.8%
viability, T/C [39]: 39%
viability, T/C [40]: 29.3%
viability, T/C [41]: 26.4%
viability, T/C [42]: 17.9%

Cn1ncc(Cl)c1-c1cc(C(=O)NC(CN)Cc2cccc(F)c2)sc1Cl (stereo unspecified)
viability, T/C (compound 0.0316 µM): 90% [middle of 4 runs]
viability, T/C (compound 0.1 µM): 90.5% [middle of 4 runs]
viability, T/C (compound 0.316 µM): 84% [middle of 4 runs]
viability, T/C (compound 1 µM): 79.9% [middle of 4 runs]
viability, T/C (compound 3.16 µM): 75.6% [middle of 4 runs]
viability, T/C (compound 10 µM): 52.2% [middle of 4 runs]
IC50 (curve of compound): > 10000 nM and 9820 nM

CC(C)NCC(C(=O)N1CCN(c2ncnc3c2C(C)CC3O)CC1)c1ccc(Cl)cc1 (stereo unspecified) + CC(Nc1ccc2c(c1)OCCn1cc(N3C(=O)OCC3C(F)F)nc1-2)C(N)=O
IC50 [1]: > 10000 nM
IC50 [2]: > 10000 nM
IC50 [3]: > 10000 nM
IC50 [4]: > 10000 nM
IC50 [5]: > 10000 nM
IC50 [6]: > 10000 nM
viability, T/C [7]: 86%
viability, T/C [8]: 95.3%
viability, T/C [9]: 98.6%
viability, T/C [10]: 98.1%
viability, T/C [11]: 85.3%
viability, T/C [12]: 66.8%
viability, T/C [13]: 87.2%
viability, T/C [14]: 88%
viability, T/C [15]: 91.6%
viability, T/C [16]: 91.8%
viability, T/C [17]: 82.1%
viability, T/C [18]: 54.7%
viability, T/C [19]: 105%
viability, T/C [20]: 91.6%
viability, T/C [21]: 88.7%
viability, T/C [22]: 88.4%
viability, T/C [23]: 78.5%
viability, T/C [24]: 53.6%
viability, T/C [25]: 79.8%
viability, T/C [26]: 71.1%
viability, T/C [27]: 76%
viability, T/C [28]: 80%
viability, T/C [29]: 62%
viability, T/C [30]: 67.5%
viability, T/C [31]: 57.9%
viability, T/C [32]: 81.2%
viability, T/C [33]: 64.3%
viability, T/C [34]: 65%
viability, T/C [35]: 73.7%
viability, T/C [36]: 46%
viability, T/C [37]: 64.9%
viability, T/C [38]: 57.1%
viability, T/C [39]: 53.5%
viability, T/C [40]: 55.3%
viability, T/C [41]: 52.5%
viability, T/C [42]: 53.5%
